In article PMC5698592 (British Journal of Clinical Pharmacology, 2017):

Assays:
[1] = tramadol administered alone in its conventional form; cited from earlier work
[2] = Phase I safety assessment; format: in vivo, human; conditions: fasted, healthy subjects; for Number of subjects who reported AEs / Number of subjects with AEs considered to be treatment‐related / Subjects who reported AEs / Subjects with AEs considered to be treatment‐related: after single oral dose of each treatment; for Abdominal pain, number of events / Abdominal pain, number of subjects / Dizziness, number of events / Dizziness, number of subjects / Dysphonia, number of events / Dysphonia, number of subjects / Euphoric mood, number of events / Euphoric mood, number of subjects / Fatigue, number of events / Fatigue, number of subjects / Feeling abnormal, number of events / Feeling abnormal, number of subjects / Headache, number of events / Headache, number of subjects / Nasal congestion, number of events / Nasal congestion, number of subjects / Nausea, number of events / Nausea, number of subjects / Rash, number of events / Rash, number of subjects / Rhinitis, number of events / Rhinitis, number of subjects / Rhinorrhoea, number of events / Rhinorrhoea, number of subjects / Somnolence, number of events / Somnolence, number of subjects / Vessel puncture site pain, number of events / Vessel puncture site pain, number of subjects / Vessel puncture site reaction, number of events / Vessel puncture site reaction, number of subjects: single oral dose
[3] = after use of IR tramadol; cited from earlier work
[4] = Phase I single-dose pharmacokinetics, plasma tramadol, M1 and celecoxib; format: in vivo, human; conditions: for AUC(0-inf): human, plasma, po, 100 mg
[5] = test system: mu‐opioid receptor; conditions: compared with tramadol itself; cited from earlier work
[6] = cited from earlier work
[7] = celecoxib alone vs. tramadol + celecoxib

| Compound | Number of subjects who reported AEs [2] | Number of subjects with AEs considered to be treatment‐related [2] | Subjects who reported AEs [2] | Subjects with AEs considered to be treatment‐related [2] | Abdominal pain, number of events [2] | Abdominal pain, number of subjects [2] | Dizziness, number of events [2] | Dizziness, number of subjects [2] | Dysphonia, number of events [2] | Dysphonia, number of subjects [2] | Euphoric mood, number of events [2] | Euphoric mood, number of subjects [2] | Fatigue, number of events [2] | Fatigue, number of subjects [2] | Feeling abnormal, number of events [2] | Feeling abnormal, number of subjects [2] | Headache, number of events [2] | Headache, number of subjects [2] | Nasal congestion, number of events [2] | Nasal congestion, number of subjects [2] | also measured |
| --- | --- | --- | --- | --- | --- | --- | --- | --- | --- | --- | --- | --- | --- | --- | --- | --- | --- | --- | --- | --- | --- |
| COc1cccc(C2(O)CCCCC2CN(C)C)c1 (stereo not drawn) [tramadol] | 14 | 14 | 40.0% | 40.0% | 2 / 2 | 2 / 2 | 4 / 4 | 4 / 4 | 1 / 1 | 1 / 1 | 2 / 2 | 2 / 2 | 2 / 2 | 2 / 2 | 1 / 1 | 1 / 1 | 1 / 1 | 1 / 1 | 1 / 1 | 1 / 1 | elimination half‐life (T ½el) [1]: 5 to 6 h; Nausea, number of events [2]: 6; Nausea, number of subjects [2]: 4; Rash, number of events [2]: 0; Rash, number of subjects [2]: 0; Rhinitis, number of events [2]: 0; Rhinitis, number of subjects [2]: 0; Rhinorrhoea, number of events [2]: 0; Rhinorrhoea, number of subjects [2]: 0; Somnolence, number of events [2]: 10 / 10; Somnolence, number of subjects [2]: 10 / 10; Vessel puncture site pain, number of events [2]: 0; Vessel puncture site pain, number of subjects [2]: 0; Vessel puncture site reaction, number of events [2]: 1 / 1; Vessel puncture site reaction, number of subjects [2]: 1 / 1; subjects affected by the most common AEs (nausea and dizziness) [3]: > 10%; AUC(0-inf) [4]: 3060 ng·h/mL |
| (+)‐O‐desmethyl‐tramadol [M1] | – | – | – | – | – | – | – | – | – | – | – | – | – | – | – | – | – | – | – | – | affinity for the mu‐opioid receptor [5]: much greater affinity |
| Cc1ccc(-c2cc(C(F)(F)F)nn2-c2ccc(S(N)(=O)=O)cc2)cc1 [celecoxib] | 12 | 8 | 34.3% | 22.9% | 0 | 0 | 1 / 1 | 1 / 1 | 1 / 1 | 1 / 1 | 0 | 0 | 0 | 0 | 0 | 0 | 1 / 1 | 1 / 1 | 1 / 1 | 1 / 1 | time to peak plasma concentrations ([6]; after administration of commercially available formulation): 2 to 3 h; elimination half‐life ([6]; commercially available formulation): 8 to 12 h; Nausea, number of events [2]: 0; Nausea, number of subjects [2]: 0; Rash, number of events [2]: 1 / 1; Rash, number of subjects [2]: 1 / 1; Rhinitis, number of events [2]: 1 / 1; Rhinitis, number of subjects [2]: 1 / 1; Rhinorrhoea, number of events [2]: 1 / 1; Rhinorrhoea, number of subjects [2]: 1 / 1; Somnolence, number of events [2]: 5 / 5; Somnolence, number of subjects [2]: 5 / 5; Vessel puncture site pain, number of events [2]: 2 / 2; Vessel puncture site pain, number of subjects [2]: 2 / 2; Vessel puncture site reaction, number of events [2]: 1 / 1; Vessel puncture site reaction, number of subjects [2]: 1 / 1; Ratio of geometric LS means (90% CI), celecoxib AUC τ, Treatment 3 vs. Treatment 4 [4, 7]: 110.39 (105.68–115.32) %; Ratio of geometric LS means (90% CI), celecoxib AUC ∞, Treatment 3 vs. Treatment 4 [4, 7]: 103.64 (99.37–108.09) %; Ratio of geometric LS means (90% CI), celecoxib C max, Treatment 3 vs. Treatment 4 [4, 7]: 163.92 (146.56–183.35) %; AUC(0-inf) [4]: 3200 ng·h/mL |
